Where two headings read alike, the source gives them in different places. Bounds are passed on as bounds.

The values that follow come from PMC7958448, “Bepridil is potent against SARS-CoV-2 in vitro” (Proceedings of the National Academy of Sciences of the …, 2021).

Test [1] addresses T1, SARS-CoV-2 main protease (Mpro) (Severe acute respiratory syndrome coronavirus 2, UniProt P0DTD1). The test is described as follows: biochemical.
For test [2], the system named is SARS-CoV-2 entry into mammalian cell hosts. The following applies: cell-based study; read-out: EC50 in inhibiting the SARS-CoV-2 entry; cited from earlier work.
Test [3] has as its target T1, SARS-CoV-2 main protease (Mpro). The following applies: 1 mM medicine, relative to control without small molecule.
Test [4] relates to SARS-CoV-2 in Vero E6 cells. Type of test: cell-based.
Test [5] has as its system SARS-CoV-2 in A549/ACE2 cells. Type of test: cell-based. The note with it: 6 repeats.
Test [6] relates to SARS-CoV-2 in Vero E6 cells. Put plainly: microbe, parasite or virus in culture. The following applies: Severe acute respiratory syndrome coronavirus 2, Vero C1008, 72 h; read-out: EC50 in inhibiting SARS-CoV-2. Type of test: cell-based.
Test [7] concerns SARS-CoV-2 in A549/ACE2 cells. The test is described as follows: microbe, parasite or virus in culture. Type of test: cell-based. The note with it: Severe acute respiratory syndrome coronavirus 2, A549-ACE2, 96 h; read-out: EC50 in inhibiting SARS-CoV-2.
Test [8] relates to Ebola virus. The following applies: mouse, in vivo, 12 mg/kg; cited from earlier work.

For the molecule `Cc1cccc(C)c1OCC(=O)N[C@@H](Cc1ccccc1)[C@@H](O)C[C@H](Cc1ccccc1)NC(=O)[C@H](C(C)C)N1CCCNC1=O` [Lopinavir], in test [1] (50 nM Mpro, 10 µM Sub3, 20% DMSO, mean ± SE, triplicate), the IC50 came out at 486000 ± 2000 nM. This molecule yielded a Hill slope in test [1] (four-parameter variable slope fit of the IC50 curve) of 29.9 ± 2.4.
In the case of `Cc1c(O)cccc1C(=O)N[C@@H](CSc1ccccc1)[C@H](O)CN1C[C@H]2CCCC[C@H]2C[C@H]1C(=O)NC(C)(C)C` [Nelfinavir], the EC50 in test [2] is 1000 nM.
With `CCOC(=O)/C=C/[C@H](C[C@@H]1CCNC1=O)NC(=O)[C@@H](CC(=O)[C@@H](NC(=O)c1cc(C)on1)C(C)C)Cc1ccc(F)cc1` [Rupintrivir], the Hill slope in test [1] came out at 1.4 ± 0.2.
For `CN1CCN(CC(=O)N2c3ccccc3C(=O)Nc3cccnc32)CC1` [Pirenzepine], in test [3], the “activation of Mpro” value was over 15%.
`CCOc1ccccc1OC(c1ccccc1)C1CNCCO1` (centres unmarked) [Reboxetine]: in test [3], the “activation of Mpro” value is reported as over 15%.
With `CCN1CC(CCN2CCOCC2)C(c2ccccc2)(c2ccccc2)C1=O` (centres unmarked) [Doxapram], the “activation of Mpro” value in test [3] is on record as over 15%.
As to `CC(C)COCC(CN(Cc1ccccc1)c1ccccc1)N1CCCC1` (centres unmarked) [Bepridil], the “SARS-CoV-2 induced CPE” value in test [4] was “No CPE”; in test [4] (Vero E6, bepridil 6.25 µM, 6 repeats), “No CPE”; in test [4] (Vero E6, bepridil 25 µM, 6 repeats), “No CPE”; in test [5] (A549/ACE2, bepridil 6.25 µM), “No CPE”; in test [5] (A549/ACE2, bepridil 12.5 µM), “No CPE”; in test [5] (A549/ACE2, bepridil 25 µM) it was “No CPE”. For the same molecule, the “SARS-CoV-2 induced CPE” value in test [5] (A549/ACE2, bepridil 50 µM) is listed as “No CPE”. The EC50 was determined as 860 nM in test [6] and 460 nM in test [7]. In addition, the “protection from Ebola virus infections” value in test [8] is recorded as 100%.
